Laboratory results: patent publication US4642355A, “Proline derivatives” (Otsuka Pharmaceutical Factory, Inc., priority 1984, dated 1987)
Where a name gives a salt, the structure may show the parent alone.

What was measured:
[1] = target: T1, angiotensin-converting enzyme (ACE) (Oryctolagus cuniculus, UniProt P12822); experiment: Inhibitory activity against angiotensin-converting enzyme (ACE); type: biochemical, rabbit; details: for IC50: enzyme from rabbit lung acetone powder, substrate hippurylhistidyl-leucine, 37° C.; for ACE inhibitory activity higher than Test Compound No. 4 (fold): compared with Test Compound No. 4
T1 construct: enzyme solution prepared from rabbit lung acetone powder; tissue Sigma Chemical Co., Ltd., U.S.A; host or cells: rabbit lung (acetone powder)
T1 sequence (P12822 34-1310): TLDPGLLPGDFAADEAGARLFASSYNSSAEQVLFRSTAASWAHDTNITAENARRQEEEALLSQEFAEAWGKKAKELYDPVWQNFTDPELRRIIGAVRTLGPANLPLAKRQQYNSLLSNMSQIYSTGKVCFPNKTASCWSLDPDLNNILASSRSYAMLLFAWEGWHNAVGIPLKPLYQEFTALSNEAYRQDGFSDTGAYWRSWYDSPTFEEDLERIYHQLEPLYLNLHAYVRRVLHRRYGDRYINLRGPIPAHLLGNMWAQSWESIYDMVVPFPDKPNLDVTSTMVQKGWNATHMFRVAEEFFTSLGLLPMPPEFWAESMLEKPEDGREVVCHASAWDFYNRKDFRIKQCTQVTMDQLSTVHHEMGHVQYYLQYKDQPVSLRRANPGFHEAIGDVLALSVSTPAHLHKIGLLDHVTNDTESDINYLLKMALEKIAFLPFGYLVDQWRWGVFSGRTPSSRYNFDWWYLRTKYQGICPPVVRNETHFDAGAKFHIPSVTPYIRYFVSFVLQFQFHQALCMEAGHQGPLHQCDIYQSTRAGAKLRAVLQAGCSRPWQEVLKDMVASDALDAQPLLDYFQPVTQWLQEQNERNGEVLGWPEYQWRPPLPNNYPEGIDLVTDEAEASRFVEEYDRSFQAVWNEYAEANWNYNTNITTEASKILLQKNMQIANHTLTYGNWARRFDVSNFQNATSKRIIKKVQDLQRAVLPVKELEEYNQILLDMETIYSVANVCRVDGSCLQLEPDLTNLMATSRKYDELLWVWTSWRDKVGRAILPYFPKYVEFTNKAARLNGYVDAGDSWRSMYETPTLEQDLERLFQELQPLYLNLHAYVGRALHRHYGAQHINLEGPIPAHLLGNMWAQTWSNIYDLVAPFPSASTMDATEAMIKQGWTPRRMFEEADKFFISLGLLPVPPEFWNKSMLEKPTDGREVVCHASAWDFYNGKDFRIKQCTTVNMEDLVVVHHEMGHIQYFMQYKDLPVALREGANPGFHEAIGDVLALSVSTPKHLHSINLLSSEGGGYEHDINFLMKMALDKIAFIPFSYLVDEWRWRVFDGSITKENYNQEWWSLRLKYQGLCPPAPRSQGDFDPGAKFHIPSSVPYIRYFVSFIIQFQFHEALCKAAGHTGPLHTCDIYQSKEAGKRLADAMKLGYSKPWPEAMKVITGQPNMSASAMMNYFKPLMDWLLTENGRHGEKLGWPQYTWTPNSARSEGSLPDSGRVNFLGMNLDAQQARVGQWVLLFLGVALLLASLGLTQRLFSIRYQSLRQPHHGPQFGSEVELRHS
Method: Inhibitory activity against angiotensin-converting enzyme (ACE)
A 100 μl quantity of an enzyme solution prepared from rabbit lung acetone powder (product of Sigma Chemical Co., Ltd., U.S.A.) was mixed with 100 μl of a sample solution. The mixture was gently shaken at 37° C. for 10 minutes. To the reaction mixture was added 100 μl of a solution containing 6.99 mM of hippurylhistidyl-leucine (product of Peptide Institute, Inc., Japan) as a substrate. The mixture was reacted at 37° C. for 45 minutes while being shaken. The reaction was terminated by addition of 200 μl of a 1N sulfuric acid aqueous solution to the reaction mixture. Sodium chloride (saturation amount) and diethyl ether (2 ml) were added to the reaction mixture to extract the hippuric acid formed by the reaction. The resulting mixture was vigorously shaken for 15 minutes and centrifuged at 2000 rpm for 5 minutes. A 1.5 ml quantity of the ether layer was separated. After the solvent was distilled off, the residue was redissolved in 1.5 ml of distilled water and the absorbance at 228 nm was measured. A control was prepared by repeating the same procedure as above except that 100 μl of distilled water was used in place of the sample solution.
The inhibitory activity was calculated by deducting the absorbance value of the residue formed by addition of the sample solution from that of the control, and the resulting value was divided by the absorbance value of the control and multiplied by 100, thereby giving a percent inhibition. The inhibitory activity was expressed as IC50, i.e., the concentration of the sample solution in the reaction mixture in which concentration 50% inhibition is achieved.
The test compounds used in the experiment are shown below.

[2] = test system: angiotensin-converting enzyme (ACE); experiment: ACE inhibitory effect in normotensive rats (inhibition of pressor response to angiotensin I); type: in vivo; details: 1 mg/kg directly to the stomach, male Wistar rats, urethane anesthesia, AI/AII ratio
Method: ACE Inhibitory effect in normotensive rats
Male Wistar rats weighing 200 to 400 g were anesthetized by the intraperitoneal injection of urethane (1.25 g/kg) and held in the supine position. The degree of inhibition of pressor response to angiotensin (A) I was determined using these rats. The blood pressure was measured with a femoral artery cannula connected to a transducer (product of Nihon Kohden Kabushiki Kaisha, Japan, Model MPU-0.5-290-0-III) and recorded in terms of a mean blood pressure value through a carrier amplifier (product of Nihon Kohden Kabushiki Kaisha, Japan, Model RP-5) on a multipurpose polygraph (product of Nihon Kohden Kabushiki Kaisha, Japan, Model RM-85). The rats were set in an experimental device and left therein for 1 hour to stabilize the hemodynamics. Then experiments were commenced. Since the magnitude of the pressor response to AI varies with time, the ratio of the responses to AI and AII (AI/AII ratio) was used to determine the magnitude of the pressor response to AI which ratio remained more constant. Through the cannulated femoral vein, AI (300 ng/kg) was administered first and AII (300 ng/kg) was given in 5 minutes to measure an AI/AII ratio. At 30 minutes after the first administration of AI, AI (300 ng/kg) was similarly administered and AII (300 ng/kg) was given in 5 minutes, followed by measuring an AI/AII ratio. This procedure was repeated until a constant value of AI/AII ratio was obtained. (The mean value of AI/AII ratios each resulting from the repeated procedure is represented as "C" in an equation to be shown later). At 10 minutes after the final administration of AII, an aqueous solution containing 1 mg/kg of each test compound was given directly to the stomach through a vinyl tube. At 10 minutes after administration of the test compound, AI (300 ng/kg) was given and at 5 minutes later, AII (300 ng/kg) was administered, followed by measurement of the AI/AII ratio (which was represented as "E" in the following equation). An ACE percent inhibition was calculated according to the equation indicated below. [formula]
Subsequently at each time of 60, 120 and 240 minutes after the administration of the test compound, AI (300 ng/kg) was given in the same manner as above and AII (300 ng/kg) was administered in 5 minutes, whereupon an ACE percent inhibition was calculated in the same way.
The results are shown below in Table 26 in which the test compounds listed are those prepared in the Examples indicated therein.

SMILES | IC50 [1] [nM] | ACE Percent Inhibition, mean ± SD ([2]; 15 min. after administration) [%] | ACE Percent Inhibition, mean ± SD ([2]; 60 min. after administration) [%] | ACE Percent Inhibition, mean ± SD ([2]; 120 min. after administration) [%] | ACE Percent Inhibition, mean ± SD ([2]; 240 min. after administration) [%] | ACE inhibitory activity higher than Test Compound No. 4 (fold) [1]
COC(=O)[C@H](CCSC)NC(C)C(=O)N1CCC[C@H]1C(=O)O (stereo partly drawn) [Test Compound 5, N--[(S)--1-methoxycarbonyl-3-methylthiopropyl]-(R,S)--alanyl-(S)--proline hydrochloride, reference compound] | 5240 | 1 ± 5 | 6 ± 4 | 7 ± 6 | 9 ± 1 | 
CCCCCCSC[C@H](NC(C)C(=O)N1CCC[C@H]1C(=O)O)C(=O)O (single isomer, unassigned) [Test Compound 2] | 1.35 |  |  |  |  | about 9.4 times
CCCCCCSC[C@H](NC(C)C(=O)N1CCC[C@H]1C(=O)O)C(=O)O (single isomer, unassigned) [Test Compound 1] | 0.521 |  |  |  |  | about 24 times
